Results from ChEMBL document CHEMBL1201862, “PubChem BioAssay data set” (2004).
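Five compound concentrations were applied to cells in 96-well plates for 48 hours; endpoints were derived by simple linear interpolation of the resulting dose-response curve. GI50 marks 50% less growth.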 The source made the active and inactive calls. Rule as the data show it: active = GI50 up to about 1.1 µM and inactive = higher.

Legend:
Assay in all cases: growth of human tumour cells (NCI), 48 h
A498 = test system: A498
ACHN = test system: ACHN
HT-29 = test system: HT-29
IGROV-1 = test system: IGROV-1
K562 = test system: K562
KM12 = test system: KM12
LOX IMVI = test system: LOX IMVI
MDA-MB-231 = test system: MDA-MB-231
MOLT-4 = test system: MOLT-4
NCI-H23 = test system: NCI-H23
NCI-H522 = test system: NCI-H522
RPMI-8226 = test system: RPMI-8226
SK-MEL-28 = test system: SK-MEL-28
SR = test system: SR
TK-10 = test system: TK-10
UO-31 = test system: UO-31
DU-145 = test system: DU-145
MDA-N = test system: MDA-N
RXF 393 = test system: RXF 393
HOP-92 = test system: HOP-92

Row | SMILES | GI50 (A498) | GI50 (ACHN) | GI50 (HT-29) | GI50 (IGROV-1) | GI50 (K562) | GI50 (KM12) | GI50 (LOX IMVI) | GI50 (MDA-MB-231) | GI50 (MOLT-4) | GI50 (NCI-H23) | GI50 (NCI-H522) | GI50 (RPMI-8226) | GI50 (SK-MEL-28) | GI50 (SR) | GI50 (TK-10) | GI50 (UO-31) | GI50 (DU-145) | GI50 (MDA-N) | GI50 (RXF 393) | GI50 (HOP-92)
1 | O=C1C=CC(=O)c2c(NCC3CC3)ccc(NCC3CC3)c21 | 60.5 µM (inactive) | 39.9 µM (inactive) | 32.2 µM (inactive) | 47.9 µM (inactive) | 22.5 µM (inactive) | 33.6 µM (inactive) | 20.7 µM (inactive) | 36.1 µM (inactive) | 11.8 µM (inactive) | 26.4 µM (inactive) | 1.05 µM (active) | 17.1 µM (inactive) | 28.6 µM (inactive) | 21.9 µM (inactive) | > 100 µM (inactive) | 75.2 µM (inactive) | – | – | – | –
2 | O=C(Nc1cc(C(=O)Nc2cccc(S(=O)(=O)O)c2)cc(C(=O)Nc2cccc(S(=O)(=O)O)c2)c1)c1cccc(C(=O)Nc2cc(C(=O)Nc3cccc(S(=O)(=O)O)c3)cc(C(=O)Nc3cccc(S(=O)(=O)O)c3)c2)c1 | 84.7 µM (inactive) | > 100 µM (inactive) | > 100 µM (inactive) | > 100 µM (inactive) | 25.6 µM (inactive) | 30.7 µM (inactive) | > 100 µM (inactive) | > 100 µM (inactive) | > 100 µM (inactive) | > 100 µM (inactive) | > 100 µM (inactive) | > 100 µM (inactive) | > 100 µM (inactive) | – | > 100 µM (inactive) | > 100 µM (inactive) | > 100 µM (inactive) | > 100 µM (inactive) | > 100 µM (inactive) | –
3 | C=C1C(=O)C23C(O)C1CCC2C12CO[C@]3(O)[C@@H](O)C1C(C)(C)CCC2O (stereo partly specified) | 21.2 µM (inactive) | 14.1 µM (inactive) | 13.5 µM (inactive) | 15.1 µM (inactive) | 3.67 µM (inactive) | 16.1 µM (inactive) | 16.5 µM (inactive) | – | 3.87 µM (inactive) | 19.6 µM (inactive) | 0.798 µM (active) | 3.75 µM (inactive) | 4.45 µM (inactive) | 4.31 µM (inactive) | 19.4 µM (inactive) | 17.1 µM (inactive) | – | – | 7.93 µM (inactive) | 3.49 µM (inactive)
4 | COc1cc(OC)c2c(=O)c(OC)c(-c3ccc4c(c3)OCO4)oc2c1 | 15.6 µM (inactive) | 33.6 µM (inactive) | > 100 µM (inactive) | 22.1 µM (inactive) | > 100 µM (inactive) | > 100 µM (inactive) | 15.8 µM (inactive) | 49.9 µM (inactive) | > 100 µM (inactive) | 23.2 µM (inactive) | 38.3 µM (inactive) | – | > 100 µM (inactive) | – | 45 µM (inactive) | > 100 µM (inactive) | 48.5 µM (inactive) | > 100 µM (inactive) | 28.1 µM (inactive) | –
5 | O=C1Nc2c(Cl)cc(Cl)cc2/C1=N/N=C/c1ccccc1O | 18.7 µM (inactive) | 29.2 µM (inactive) | 20.4 µM (inactive) | 26.1 µM (inactive) | 21.2 µM (inactive) | 26.4 µM (inactive) | 16.3 µM (inactive) | 19.8 µM (inactive) | 20.7 µM (inactive) | 19.5 µM (inactive) | – | – | 20.1 µM (inactive) | 16.3 µM (inactive) | 36.8 µM (inactive) | 27.6 µM (inactive) | – | 17.4 µM (inactive) | 21.2 µM (inactive) | 27.1 µM (inactive)
6 | Cn1cc2ccccc2c1-c1nc(N)nc(F)n1 | 15.6 µM (inactive) | > 100 µM (inactive) | > 100 µM (inactive) | > 100 µM (inactive) | > 100 µM (inactive) | > 100 µM (inactive) | > 100 µM (inactive) | – | > 100 µM (inactive) | > 100 µM (inactive) | > 100 µM (inactive) | > 100 µM (inactive) | > 100 µM (inactive) | > 100 µM (inactive) | > 100 µM (inactive) | 67.9 µM (inactive) | – | – | 82.8 µM (inactive) | > 100 µM (inactive)
7 | O=C(CCc1nnc2s/c(=C\c3ccc4c(c3)OCO4)c(=O)n12)Nc1cc(Cl)ccc1Cl | > 100 µM (inactive) | > 100 µM (inactive) | > 100 µM (inactive) | > 100 µM (inactive) | > 100 µM (inactive) | > 100 µM (inactive) | > 100 µM (inactive) | – | > 100 µM (inactive) | > 100 µM (inactive) | > 100 µM (inactive) | > 78.5 µM (inactive) | > 100 µM (inactive) | > 100 µM (inactive) | > 100 µM (inactive) | > 100 µM (inactive) | – | – | > 100 µM (inactive) | > 100 µM (inactive)
8 | CNC(=O)NCCCCC(NC(=O)OCc1ccccc1)C(=O)OCc1ccccc1 (stereo unspecified) | > 100 µM (inactive) | 19.1 µM (inactive) | 71.4 µM (inactive) | 28.1 µM (inactive) | 44.3 µM (inactive) | 29.9 µM (inactive) | 16.7 µM (inactive) | – | 20.8 µM (inactive) | 29.3 µM (inactive) | 14.5 µM (inactive) | 24.2 µM (inactive) | 21.1 µM (inactive) | 27.4 µM (inactive) | 21.9 µM (inactive) | 18.2 µM (inactive) | – | – | 16.4 µM (inactive) | 36 µM (inactive)
